# Measured values published in patent US12077503B2, “Substituted cyclic amides and their use as herbicides” (FMC CORPORATION, priority 2015, dated 2024).
# Experiments:
# Assay type in all cases: in vivo
# [1] = system: ducksalad (Heteranthera limosa); experiment: Test B flooded paddy test; conditions: Heteranthera limosa, 250 g ai/ha, Flood; 0 to 100 scale where 0 is no effect and 100 is complete control; read-out: Ducksalad plant response rating
# Outline: (§1)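 Response scored visually against untreated controls, 0 = no effect and 100 = complete control, 13–15 d after treatment in the greenhouse. Compounds added to paddy water held 3 cm above soil surface. Treatment given at 2-leaf stage.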
# [2] = system: sedge, umbrella (small-flower umbrella sedge, Cyperus difformis); experiment: Test B flooded paddy test; conditions: Cyperus difformis, 250 g ai/ha, Flood; 0 to 100 scale where 0 is no effect and 100 is complete control; read-out: Sedge, Umbrella plant response rating
# Outline: as §1
# [3] = system: barnyardgrass (Echinochloa crus-galli); experiment: Test B flooded paddy test; conditions: Echinochloa crus-galli, 250 g ai/ha, Flood; 0 to 100 scale where 0 is no effect and 100 is complete control; read-out: Barnyardgrass plant response rating
# Outline: as §1
# rice (Oryra sativa) = experiment: Test B flooded paddy test; conditions: Oryza sativa, 250 g ai/ha, Flood; 0 to 100 scale where 0 is no effect and 100 is complete control; read-out: Rice plant response rating
# Outline: as §1
# [4] = system: pigweed (Amaranthus retroflexus); experiment: Test A preemergence; conditions: Amaranthus retroflexus, pre-emergence, 240 h, 0 to 100 scale where 0 is no effect and 100 is complete control, read-out: Pigweed plant response rating
# [5] = system: ragweed (common ragweed, Ambrosia elatior); experiment: Test A preemergence; conditions: Ambrosia artemisiifolia, pre-emergence, 240 h, 0 to 100 scale where 0 is no effect and 100 is complete control, read-out: Ragweed plant response rating
# Outline: (§2)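 Visual injury, scored on a 0–100 scale relative to untreated controls, was recorded about 10 d after application. Treatments were a preemergence soil spray over planted seeds or a postemergence spray on plants at the one- to two-leaf stage, 2 to 10 cm tall, all in loam soil–sand blend in the greenhouse.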
# Kochia (Kochia scoparia) [6] = experiment: Test A preemergence; conditions: Bassia scoparia, pre-emergence, 240 h, 0 to 100 scale where 0 is no effect and 100 is complete control, read-out: Kochia plant response rating
# Outline: as §2
# [7] = system: barnyardgrass (Echinochloa crus-galli); experiment: Test A preemergence; conditions: Echinochloa crus-galli, pre-emergence, 240 h, 0 to 100 scale where 0 is no effect and 100 is complete control, read-out: Barnyardgrass plant response rating
# Outline: as §2
# [8] = system: ryegrass, Italian (Italian ryegrass, Lolium multiflorum); experiment: Test A preemergence; conditions: Lolium multiflorum, pre-emergence, 240 h, 0 to 100 scale where 0 is no effect and 100 is complete control, read-out: Ryegrass, Italian plant response rating
# Outline: as §2
# [9] = system: giant foxtail (Setaria faberii); experiment: Test A preemergence; conditions: Setaria faberi, pre-emergence, 240 h, 0 to 100 scale where 0 is no effect and 100 is complete control, read-out: Foxtail, Giant plant response rating
# Outline: as §2
# [10] = system: pigweed (Amaranthus retroflexus); experiment: Test A postemergence; conditions: Amaranthus retroflexus, post-emergence, 240 h, Postemergence, read-out: Pigweed plant response rating (0 to 100 scale)
# Outline: as §2
# corn (Zea mays) = experiment: Test A postemergence; conditions: Zea mays, post-emergence, 240 h, Postemergence, read-out: Corn plant response rating (0 to 100 scale)
# Outline: as §2
# [11] = system: wheat (Triticum aestivum); experiment: Test A postemergence; conditions: Triticum aestivum, post-emergence, 240 h, Postemergence, read-out: Wheat plant response rating (0 to 100 scale)
# Outline: as §2
# [12] = system: ragweed (common ragweed, Ambrosia elatior); experiment: Test A postemergence; conditions: Ambrosia artemisiifolia, post-emergence, 240 h, Postemergence, read-out: Ragweed plant response rating (0 to 100 scale)
# Outline: as §2
# [13] = system: blackgrass (Alopecurus myosuroides); experiment: Test A postemergence; conditions: Alopecurus myosuroides, post-emergence, 240 h, Postemergence, read-out: Blackgrass plant response rating (0 to 100 scale)
# Outline: as §2
# Kochia (Kochia scoparia) [14] = experiment: Test A postemergence; conditions: Bassia scoparia, post-emergence, 240 h, Postemergence, read-out: Kochia plant response rating (0 to 100 scale)
# Outline: as §2
# [15] = system: barnyardgrass (Echinochloa crus-galli); experiment: Test A postemergence; conditions: Echinochloa crus-galli, post-emergence, 240 h, Postemergence
# Outline: as §2
# [16] = system: ryegrass, Italian (Italian ryegrass, Lolium multiflorum); experiment: Test A postemergence; conditions: Lolium multiflorum, post-emergence, 240 h, Postemergence, read-out: Ryegrass, Italian plant response rating (0 to 100 scale)
# Outline: as §2
# [17] = system: Galium (catchweed bedstraw, Galium aparine); experiment: Test A postemergence; conditions: Galium, post-emergence, 240 h, Postemergence, read-out: Galium plant response rating (0 to 100 scale)
# Outline: as §2
# [18] = system: giant foxtail (Setaria faberii); experiment: Test A postemergence; conditions: Setaria faberi, post-emergence, 240 h, Postemergence, read-out: Foxtail, Giant plant response rating (0 to 100 scale)
# Outline: as §2
# [19] = 125 g ai/ha, preemergence, visual injury rating, approximately 10 d
# [20] = 125 g ai/ha, visual rating about 10 d after treatment
# [21] = 31 g ai/ha, 0 is no effect, 100 is complete control
structure (smiles),measurement,setting,value
O=C(Nc1ccc(F)c(F)c1F)[C@H]1C(=O)N(CC(F)F)C[C@@H]1c1cccc(C(F)(F)F)c1 [Compound 1297],pest or weed control at 250 g/ha,[1],0%
same,pest or weed control at 250 g/ha,[2],0%
same,pest or weed control at 250 g/ha,[3],0%
same,pest or weed control at 250 g/ha,rice (Oryra sativa),30%
same,pest or weed control at 31 g/ha,"[4]; 31 g ai/ha, Preemergence",0%
same,pest or weed control at 125 g/ha,[4]; [19],0%
same,pest or weed control at 31 g/ha,"[5]; 31 g ai/ha, Preemergence",0%
same,pest or weed control at 125 g/ha,[5]; [19],0%
same,pest or weed control at 31 g/ha,"Kochia (Kochia scoparia) [6]; 31 g ai/ha, Preemergence",0%
same,pest or weed control at 125 g/ha,Kochia (Kochia scoparia) [6]; [19],0%
same,pest or weed control at 31 g/ha,"[7]; 31 g ai/ha, Preemergence",20%
same,pest or weed control at 125 g/ha,[7]; [19],20%
same,pest or weed control at 31 g/ha,"[8]; 31 g ai/ha, Preemergence",0%
same,pest or weed control at 125 g/ha,[8]; [19],0%
same,pest or weed control at 31 g/ha,"[9]; 31 g ai/ha, Preemergence",0%
same,pest or weed control at 125 g/ha,[9]; [19],80%
same,pest or weed control at 125 g/ha,[10]; [20],0%
same,pest or weed control at 31 g/ha,[10]; [21],0%
same,plant injury at 125 g/ha,corn (Zea mays); [20],0%
same,plant injury at 31 g/ha,corn (Zea mays); [21],0%
same,plant injury at 125 g/ha,[11]; [20],0%
same,plant injury at 31 g/ha,[11]; [21],0%
same,pest or weed control at 125 g/ha,[12]; [20],0%
same,pest or weed control at 31 g/ha,[12]; [21],0%
same,pest or weed control at 125 g/ha,[13]; [20],0%
same,pest or weed control at 31 g/ha,[13]; [21],0%
same,pest or weed control at 125 g/ha,Kochia (Kochia scoparia) [14]; [20],0%
same,pest or weed control at 31 g/ha,Kochia (Kochia scoparia) [14]; [21],0%
same,pest or weed control at 125 g/ha,"[15]; 125 g ai/ha, visual rating about 10 d after treatment, read-out: Barnyardgrass plant response rating (0 to 100 scale, 0 no effect, 100 complete control)",20%
same,pest or weed control at 31 g/ha,"[15]; 31 g ai/ha, 0 is no effect, 100 is complete control, read-out: Barnyardgrass plant response rating (0 to 100 scale)",0%
same,pest or weed control at 125 g/ha,[16]; [20],0%
same,pest or weed control at 31 g/ha,[16]; [21],0%
same,pest or weed control at 125 g/ha,[17]; [20],0%
same,pest or weed control at 31 g/ha,[17]; [21],0%
same,pest or weed control at 125 g/ha,[18]; [20],20%
same,pest or weed control at 31 g/ha,[18]; [21],0%
